Values belong to the compound of their own block, whether it stands above or below them.
Experiments:
[1] = in vivo; cited from earlier work
[2] = Laq-Na dose incorporated in a clear GA product at increased amino acid concentration; assay type: physicochemical
Protocol: To 6.015 g of Solution C additional amounts of Laq-Na were added drop by drop at stirring at RT. The solutions obtained were clear at 2-8° C. and at RT at Laq-Na concentrations 1.28, 1.49, 1.75 mg/mL.

[3] = Saturated solution of laquinimod acid in 0.1 M PBS; assay type: physicochemical; conditions: 0.1 M PBS pH 7.4, RT
Protocol: A saturated solution of laquinimod acid […] was prepared by dissolving of 4.2283 g of Laq-acid in 0.1 M PBS (pH 7.4, 700 mL) for 3.5 h at RT. After decantation of the suspension the clear upper part was filtered through a paper (Whatman) filter. This clear, filtered solution contained about 1.5 mg/mL of laquinimod acid (Solution A).

[4] = system: acute experimental autoimmune encephalomyelitis (aEAE) model; conditions: in vivo; cited from earlier work
multiple sclerosis (MS) = conditions: cited from earlier work
[5] = pH optimum for stability and solubility; assay type: physicochemical
Excerpt: Developing formulations containing laquinimod and GA is particularly difficult because laquinimod and GA have different pH optimums in terms of stability and solubility and because of undesired effects, mainly gelation or the formation of turbid formulations in the presence of various buffers, solvents and surface active agents.

Laq-Na possible to incorporate ([2]; glycine 0.6 mg/mL): 1.05 to 1.07 mg/mL
Laq-Na possible to incorporate ([2]; glycine 4.2 mg/mL): 1.51 mg/mL
Laq-Na possible to incorporate ([2]; lysine 1.39 mg/mL): 1.06 to 1.09 mg/mL
Laq-Na possible to incorporate ([2]; lysine 3.38 mg/mL): 1.88 mg/mL
Laq-Na possible to incorporate ([2]; proline 0.9 mg/mL): 1.06 to 1.09 mg/mL
Laq-Na possible to incorporate ([2]; proline 2.45 mg/mL): 1.55 mg/mL
Compound: CCN(C(=O)c1c(O)c2c(Cl)cccc2n(C)c1=O)c1ccccc1 [Laquinimod sodium]
Oral bioavailability [1]: high

Laquinimod acid in the clear filtered saturated solution [3]: about 1.5 mg/mL
Compound: CCN(C(=O)c1c(O)c2c(Cl)cccc2n(C)c1=O)c1ccccc1 [Laquinimod, N-ethyl-N-phenyl-1,2-dihydro-4-hydroxy-5-chloro-1-methyl-2-oxoquinoline-3-carboxamide]
Efficacy in aEAE model [4]: effective
Development of active MRI lesions (multiple sclerosis (MS); relapsing MS): reduce development of active MRI lesions
Solubility and stability versus pH [5]: more soluble and stable in alkaline media

Compound: L-glutamic acid polymer with L-alanine, L-lysine and L-tyrosine, acetate (salt) [Glatiramer acetate]
Relapse rates, progression of disability, new MRI lesions (multiple sclerosis (MS); daily subcutaneous injections, 20 mg/injection): reduce relapse rates
Efficacy in treating multiple sclerosis (multiple sclerosis (MS); in vivo): effective

— patent publication US20170028013A1 (Teva Pharmaceutical Industries, Ltd., priority 2015, published 2017)
